Assay results published in PMC8007111, “Novel Potent Muscarinic Receptor Antagonists: Investigation on the Nature of Lipophilic Substituents in the 5- and/or 6-Positions of the 1,4-Dioxane Nucleus” (Journal of Medicinal Chemistry, 2020).

Assays:
[1] = molecular target: T1, hM2 mAChR (Homo sapiens, UniProt P08172); test: [3H]NMS inhibition radioligand binding, hM2 in CHO-K1 cell membranes; settings: [3H]NMS, CHO-K1 cell membranes; mean ± S.E.M.
T1 construct: expressed in transfected cells; host or cells: CHO-K1 (membrane preparation)
T1 sequence (P08172 1-466): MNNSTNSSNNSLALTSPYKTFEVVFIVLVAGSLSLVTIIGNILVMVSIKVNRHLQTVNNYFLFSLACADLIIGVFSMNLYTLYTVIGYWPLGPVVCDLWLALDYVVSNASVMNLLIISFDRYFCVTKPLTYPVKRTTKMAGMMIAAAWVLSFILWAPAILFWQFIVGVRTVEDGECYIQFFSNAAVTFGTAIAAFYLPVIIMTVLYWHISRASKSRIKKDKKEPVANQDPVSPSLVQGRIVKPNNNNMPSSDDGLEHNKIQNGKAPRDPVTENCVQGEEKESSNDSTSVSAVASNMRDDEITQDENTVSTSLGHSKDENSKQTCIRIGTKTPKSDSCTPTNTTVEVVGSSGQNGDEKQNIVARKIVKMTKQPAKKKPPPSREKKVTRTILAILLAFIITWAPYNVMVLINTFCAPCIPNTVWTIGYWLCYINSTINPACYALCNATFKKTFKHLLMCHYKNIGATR

[2] = molecular target: T2, hM3 mAChR (Homo sapiens, UniProt P20309); test: [3H]NMS inhibition radioligand binding, hM3 in CHO-K1 cell membranes
T2 construct: expressed in transfected cells; host or cells: CHO-K1 (membrane preparation)

[3] = system: MSCs from mouse bone marrow; test: MSC viability (MTS assay), dose-response; assay type: cell-based; settings: 24 h
Method: It is well established that bone marrow MSC behavior is influenced by a variety of signaling systems. In context, cholinergic intramural stimuli and, in particular, muscarinic signals orchestrate MSCs viability and commitment.[11],[12] Considering also the pluripotent MSC nature and their contribution to bone, blood, and systemic homeostasis,[53] viability studies on MSCs were performed to determine the functional profile of 3b, the most interesting compound in this series. […] Successively, the efficacy of 3b in contrasting cell viability induced by the well-known mAChR agonist carbachol was evaluated. […] Further research on the intracellular mechanistic outcomes of 3b on MSCs remains mandatory.
The in vitro studies were performed by using bone marrow MSCs as a model. […] After 2 weeks of initiating culture, cells were washed with PBS, detached by trypsinization, counted, and plated at the density of 5,000 cells/well in 96 culture plates (Costar Corp., Milano, Italy) in DMEM containing 10% HIFCS, penicillin, and streptomycin.
MSCs were treated with compound 3b (from 10^–4 to 10^–10 M) for 24 h. […] At the end of each procedure, the MSCs viability was measured by MTS assay. […] The quantity of the formazan product was directly proportional to the number of living cells in culture. The colored formazan was measured by reading the absorbance at 490 nm using a […] plate reader.

T2 sequence (P20309 whole entry): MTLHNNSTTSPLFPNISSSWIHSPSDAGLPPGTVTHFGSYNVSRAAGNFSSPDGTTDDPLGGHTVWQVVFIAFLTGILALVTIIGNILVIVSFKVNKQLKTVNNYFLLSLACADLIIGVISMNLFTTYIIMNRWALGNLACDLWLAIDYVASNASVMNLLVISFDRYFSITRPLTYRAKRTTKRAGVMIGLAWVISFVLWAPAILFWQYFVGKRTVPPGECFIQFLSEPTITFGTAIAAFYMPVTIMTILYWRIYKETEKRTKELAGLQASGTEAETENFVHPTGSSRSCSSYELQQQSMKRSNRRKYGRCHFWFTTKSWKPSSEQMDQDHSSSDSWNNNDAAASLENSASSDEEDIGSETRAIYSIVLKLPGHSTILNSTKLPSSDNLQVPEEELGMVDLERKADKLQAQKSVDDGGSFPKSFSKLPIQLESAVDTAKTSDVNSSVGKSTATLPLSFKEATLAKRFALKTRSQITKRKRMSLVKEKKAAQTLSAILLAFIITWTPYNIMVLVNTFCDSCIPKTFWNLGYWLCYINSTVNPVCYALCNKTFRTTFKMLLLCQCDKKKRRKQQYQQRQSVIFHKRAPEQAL

C[N+](C)(C)C[C@@H]1COC[C@](c2ccccc2)(C2CCCCC2)O1.[I-] (relative stereo) [3b, 1-((2R*,6R*)-6-Cyclohexyl-6-phenyl-1,4-dioxan-2-yl)-N,N,N-trimethylmethanaminium Iodide]
pKi hM2 [1]: 7.91 ± 0.13
pKi hM3 ([2]; [3H]NMS, CHO-K1 cell membranes, mean ± S.E.M.): 9.07 ± 0.03
M3/M2 selectivity ratio ([2]; from binding affinities at hM3 and hM2): 14.5
effect on MSCs viability ([3]; high concentration (10^–4 M)): down-regulate MSCs viability
effect on MSCs viability ([3]; low concentration (10^–10 M)): increased cell viability
